System: SCLC cell lines
Assay: categorisation of the SCLC cell line panel by EC50
Format: cell-based, human
Details: EC50 less than or equal to 4.1 μM
Method: Cells were treated at 10,000 or 50,000 cells per well for adherent or suspension cells, respectively, in 96-well microtiter plates in the presence of 10% human serum for 48 hours with or without ABT-263, in a humidified chamber with 5% CO2. ABT-263 was synthesized as previously described in Tse, C., Shoemaker, A. R., Adickes, J., et al., “ABT-263: a potent and orally bioavailable Bcl-2 family inhibitor,” Cancer Res 2008; 68: 3421-3428; and Oltersdorf, T., Elmore, S. W., Shoemaker, A. R., et al., “An inhibitor of Bcl-2 family proteins induces regression of solid tumours,” Nature 2005; 435: 677-681, and cell cytotoxicity EC50 values were assessed using CellTiter Glo (Promega, Madison Wis.).
o divide the training set cell lines into sensitive and resistant categories, a bivariate fit curve was generated for the ABT-263 EC50 versus rank and fitted with a smoothing spline (lambda=1), and the maximum increase in the slope was approximately 5 μM for both sets. […]
Division of cell lines into sensitive and resistant categories. […] To identify gene expression patterns that can predict sensitivity to ABT-263, as well as genes that might contribute to resistance to treatment, RNA expression profiles for a panel of SCLC cell lines were determined, as well as a panel of leukemia and lymphoma cell lines. […]

CC1(C)CCC(c2ccc(Cl)cc2)=C(CN2CCN(c3ccc(C(=O)NS(=O)(=O)c4ccc(N[C@H](CCN5CCOCC5)CSc5ccccc5)c(S(=O)(=O)C(F)(F)F)c4)cc3)CC2)C1 [ABT-263, N-(4-(4-((2-(4-chlorophenyl)-5,5-dimethyl-1-cyclohex-1-en-1-yl)methyl)piperazin-1-yl)benzoyl)-4-(((1R)-3-(morpholin-4-yl)-1-((phenylsulfanyl)methyl)propyl)amino)-3-((trifluoromethyl)sulfonyl)benzenesulfonamide]
SCLC cell lines categorized as being sensitive: 26 out of 36
